What was measured:
importin-beta [1] = settings: CHX 10 micrograms/ml, ActD 5 micrograms/ml
Method: Electrophoretic gel autoradiography: In order to evaluate whether importin-beta is synthesized in axons, sciatic nerve segments were incubated for 6 hours in Met/Cys-deficient DMEM medium (Gibco-BRL) containing 1 mCi/ml of [35]S-Met/Cys (Amersham Bioscience), with or without 10 micrograms/ml of the translation inhibitor cycloheximide (CHX, Sigma) or 5 micrograms/ml of the transcription inhibitor actinomycin D (ActD, Sigma), followed by extrusion of the axoplasm into nuclear transport buffer. The extruded axoplasm was immunoprecipitated with anti importin-beta antibody, and the immunoprecipitate was resolved via 10% SDS-PAGE. Following electrophoresis, the gel was dried and analyzed via autoradiography using FujiFilm BAS2500.

vimentin and peripherin = settings: calpeptin 100 micromolar applied to the nerve by injection
pERK with vimentin = pERK with vimentin (Homo sapiens, UniProt P28482); settings: EGTA 100 millimolar
Method: (§1) Pull-down assays and co-immunoprecipitations: Sciatic nerve axoplasm (500 micrograms) was pre-cleared for 1 hour with 80% protein G-Sepharose (Amersham Bioscience). Following overnight incubation with primary antibody, complexes were incubated on protein-G beads for 2 hours, washed extensively and eluted by boiling in SDS-PAGE sample buffer before loading on gels for Western blot analysis. For co-immunoprecipitation in the presence of competitors, 2 micromolar NLS (SEQ ID NO: 2) or reverse-NLS (SEQ ID NO: 3) peptide was added to the axoplasm for overnight incubation at 4 degrees centigrade. For direct pull-downs, GST-pERK (0.5 microgram) or importin-beta (1 microgram) was equilibrated in PBS or NTB and added to 500 microgram aliquots of axoplasm from different post-lesion times. […] All pull-downs were washed twice with 0.2 molar NaCl in PBS or NTB and twice again with PBS or NTB before elution in SDS-PAGE sample buffer for loading on gels.

pERK2 = pERK2 (Homo sapiens, UniProt P28482); settings: in-vitro, increased at calcium up to 1 millimolar
Method: as §1

alkaline phosphatase = settings: identical concentrations of vimentin
Method: (§2) Alkaline phosphatase (AP; 2 units; Roche, Mannheim, Germany) or axoplasm from injured nerve (100 micrograms) was then added for an additional 30 minutes. Complexes were purified over Nickel-NTA-Agarose followed by Western blot analysis for pERK. Alkaline phosphatase activity was verified with the synthetic substrate p-nitrophenyl phosphate (pNPP, Catalog # S0942, Sigma) dissolved in 0.1 molar glycine buffer (0.1 molar glycine, 1 millimolar MgCl2, 1 millimolar ZnCl2; pH 10.4) for a stock solution of 1 mg/ml. […] The yellow hydrolysis product was quantified spectrophotometrically at 405 nm.

pERK = pERK (Homo sapiens, UniProt P28482)
Method: as §2

importin-beta [2] = target: importin-beta (Homo sapiens, UniProt Q14974)
Method: GST alone was used as a negative control.
as §1

Sequence of importin-beta (Homo sapiens, UniProt Q14974) (Q14974 whole entry): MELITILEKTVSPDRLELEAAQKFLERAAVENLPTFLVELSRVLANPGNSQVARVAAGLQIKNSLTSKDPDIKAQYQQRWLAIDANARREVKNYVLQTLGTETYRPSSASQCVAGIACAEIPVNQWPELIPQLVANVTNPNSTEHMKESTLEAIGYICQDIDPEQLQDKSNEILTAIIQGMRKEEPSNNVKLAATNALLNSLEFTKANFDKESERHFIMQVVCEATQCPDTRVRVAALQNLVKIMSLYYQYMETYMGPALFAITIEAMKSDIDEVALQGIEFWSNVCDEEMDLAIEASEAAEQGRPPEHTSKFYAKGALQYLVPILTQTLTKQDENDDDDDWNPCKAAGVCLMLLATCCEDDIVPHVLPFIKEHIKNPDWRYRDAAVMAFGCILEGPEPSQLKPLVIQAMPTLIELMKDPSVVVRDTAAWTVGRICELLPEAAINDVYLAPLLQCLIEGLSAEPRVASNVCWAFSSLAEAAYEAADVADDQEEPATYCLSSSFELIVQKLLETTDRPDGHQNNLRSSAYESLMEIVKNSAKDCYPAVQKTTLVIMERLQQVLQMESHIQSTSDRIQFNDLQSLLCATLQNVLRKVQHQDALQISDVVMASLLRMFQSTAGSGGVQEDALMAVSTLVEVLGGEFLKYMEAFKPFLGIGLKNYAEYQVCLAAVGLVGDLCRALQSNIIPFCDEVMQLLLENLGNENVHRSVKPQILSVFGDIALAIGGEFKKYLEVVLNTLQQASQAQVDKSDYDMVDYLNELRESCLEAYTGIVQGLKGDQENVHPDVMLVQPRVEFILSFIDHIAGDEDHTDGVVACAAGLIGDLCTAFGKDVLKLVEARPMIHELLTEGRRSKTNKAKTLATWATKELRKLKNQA
Sequence of importin-beta (Homo sapiens, UniProt Q14974) (P02544 whole entry partner): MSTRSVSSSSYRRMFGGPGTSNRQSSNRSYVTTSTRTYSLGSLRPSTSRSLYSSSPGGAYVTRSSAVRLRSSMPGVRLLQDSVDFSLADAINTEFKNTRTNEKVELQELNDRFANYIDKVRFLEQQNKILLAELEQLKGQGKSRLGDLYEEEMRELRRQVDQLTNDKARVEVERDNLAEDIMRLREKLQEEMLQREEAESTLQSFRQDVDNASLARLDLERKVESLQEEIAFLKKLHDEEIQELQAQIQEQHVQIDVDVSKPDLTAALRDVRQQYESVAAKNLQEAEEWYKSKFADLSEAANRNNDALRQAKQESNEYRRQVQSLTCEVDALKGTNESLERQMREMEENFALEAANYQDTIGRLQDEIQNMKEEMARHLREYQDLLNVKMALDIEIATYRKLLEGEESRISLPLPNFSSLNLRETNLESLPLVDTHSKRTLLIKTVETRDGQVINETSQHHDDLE
Sequence of pERK (P28482 whole entry): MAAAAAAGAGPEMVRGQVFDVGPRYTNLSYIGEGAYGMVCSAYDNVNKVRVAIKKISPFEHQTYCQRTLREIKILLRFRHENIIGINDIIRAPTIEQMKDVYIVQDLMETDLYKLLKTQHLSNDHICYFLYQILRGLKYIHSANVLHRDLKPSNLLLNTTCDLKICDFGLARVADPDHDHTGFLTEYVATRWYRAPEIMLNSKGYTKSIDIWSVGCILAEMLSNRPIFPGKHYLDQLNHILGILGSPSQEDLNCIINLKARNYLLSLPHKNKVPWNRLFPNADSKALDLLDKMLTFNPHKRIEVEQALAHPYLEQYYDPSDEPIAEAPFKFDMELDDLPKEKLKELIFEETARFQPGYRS
Sequence of pERK (Q14974 whole entry partner): as the sequence (Q14974 whole entry) above
Sequence of pERK (P02544 whole entry partner): as the sequence (P02544 whole entry partner) above
Sequence of pERK with vimentin (P28482 2-360): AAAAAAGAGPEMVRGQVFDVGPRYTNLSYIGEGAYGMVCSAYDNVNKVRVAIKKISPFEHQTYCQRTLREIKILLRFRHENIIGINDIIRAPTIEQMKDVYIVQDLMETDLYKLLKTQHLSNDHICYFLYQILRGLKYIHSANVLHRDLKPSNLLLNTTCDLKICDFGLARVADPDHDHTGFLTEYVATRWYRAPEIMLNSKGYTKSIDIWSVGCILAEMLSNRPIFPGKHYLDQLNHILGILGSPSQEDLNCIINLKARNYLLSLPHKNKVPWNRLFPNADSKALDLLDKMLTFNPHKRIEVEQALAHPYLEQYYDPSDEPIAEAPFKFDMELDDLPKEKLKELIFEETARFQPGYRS
Sequence of pERK2 (P28482 whole entry): as the sequence (P28482 whole entry) above
Sequence of pERK2 (P02544 whole entry partner): as the sequence (P02544 whole entry partner) above

Compound: C[C@@H]1C[C@@H]([C@H](O)CC2CC(=O)NC(=O)C2)C(=O)[C@@H](C)C1 [CHX, cycloheximide]
- formation of radioactive importin-beta protein (importin-beta [1]): not formed

Compound: CCCC[C@@H](C=O)NC(=O)[C@H](CC(C)C)NC(=O)OCc1ccccc1 [calpeptin]
- lower molecular mass bands of vimentin and peripherin (vimentin and peripherin): disappeared

Compound: EGTA
- interaction of GST-pERK with vimentin in axoplasm (pERK with vimentin): blocked

Compound: actinomycin D [ActD]
- formation of radioactive importin-beta protein (importin-beta [1]): merely reduced

Compound: vimentin
- vimentin binding to pERK2 (pERK2): calcium dependent
- hydrolysis of p-nitrophenyl phosphate by alkaline phosphatase (alkaline phosphatase): no effect
- calcium dependence of protection of pERK2 from dephosphorylation (pERK; 2 micrograms vimentin, varied calcium): calcium dependent manner
- protection of pERK2 from the phosphatases (pERK; three-fold to six-fold molar ratio to pERK, alkaline phosphatase or axoplasm): almost complete protection
- effect of changing calcium concentrations on the vimentin-importin-beta interaction (importin-beta [2]): little or no effect
- pull-down with GST-importin-beta (importin-beta [2]; did not precipitate with GST alone): readily pulled down
